Source: patent publication US12077503B2, “Substituted cyclic amides and their use as herbicides” (FMC CORPORATION, priority 2015, dated 2024)

Experiments:
Assay type in all cases: in vivo
corn (Zea mays) [1] = experiment: Test G Pre-Emergence Protocol; settings: Zea mays, pre-emergence, 312 h, evaluated after 13 days; for plant injury at 15.625 g/ha: 15.625 g ai/ha; for plant injury at 15.625 g/ha / plant injury at 250 g/ha: read-out: Corn damage rating (100=total damage to plant; 0=no damage to plant); for plant injury at 62.5 g/ha: 62.5 g ai/ha, 100=total damage to plant, 0=no damage to plant, read-out: plant damage rating, Corn; for plant injury at 250 g/ha: 250 g ai/ha
Summary of the method: (§1)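 Glasshouse pre-emergence test: soil-sown seeds, sprayed after 1 d at 15.625, 62.5 or 250 g/ha. Conditions 24/16° C day/night, 14 h light, 65% humidity, watering twice daily. Rating 13 d post-spray (100 = total damage).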

[2] = system: ivy-leaved morning glory (Ipomoea hederacea); experiment: Test G Pre-Emergence Protocol; settings: Ipomoea, pre-emergence, 312 h, evaluated after 13 days; for pest or weed control at 15.625 g/ha: 15.625 g ai/ha, read-out: Morning-glory, Ivy-leaved damage rating (100=total damage to plant; 0=no damage to plant); for pest or weed control at 62.5 g/ha: 62.5 g ai/ha, 100=total damage to plant, 0=no damage to plant, read-out: plant damage rating, Morningglory, Ivy-leaved; for pest or weed control at 250 g/ha: 250 g ai/ha, read-out: Morningglory, Ivy-leaved damage rating (100=total damage to plant; 0=no damage to plant)
Summary of the method: as §1

[3] = system: redroot pigweed (Amaranthus retroflexus); experiment: Test G Pre-Emergence Protocol; settings: Amaranthus retroflexus, pre-emergence, 312 h, evaluated after 13 days; for pest or weed control at 15.625 g/ha: 15.625 g ai/ha; for pest or weed control at 15.625 g/ha / pest or weed control at 250 g/ha: read-out: Pigweed, Redroot damage rating (100=total damage to plant; 0=no damage to plant); for pest or weed control at 62.5 g/ha: 62.5 g ai/ha, 100=total damage to plant, 0=no damage to plant, read-out: plant damage rating, Pigweed, Redroot; for pest or weed control at 250 g/ha: 250 g ai/ha
Summary of the method: as §1

[4] = system: giant foxtail (Setaria faberi); experiment: Test G Pre-Emergence Protocol; settings: Setaria faberi, pre-emergence, 312 h, evaluated after 13 days; for pest or weed control at 15.625 g/ha: 15.625 g ai/ha; for pest or weed control at 15.625 g/ha / pest or weed control at 250 g/ha: read-out: Foxtail, Giant damage rating (100=total damage to plant; 0=no damage to plant); for pest or weed control at 62.5 g/ha: 62.5 g ai/ha, 100=total damage to plant, 0=no damage to plant, read-out: plant damage rating, Foxtail, Giant; for pest or weed control at 250 g/ha: 250 g ai/ha
Summary of the method: as §1

[5] = system: barnyardgrass (Echinochloa crus-galli); experiment: Test G Pre-Emergence Protocol; settings: Echinochloa crus-galli, pre-emergence, 312 h, evaluated after 13 days; for pest or weed control at 15.625 g/ha: 15.625 g ai/ha, read-out: Barnyard grass damage rating (100=total damage to plant; 0=no damage to plant); for pest or weed control at 62.5 g/ha: 62.5 g ai/ha, 100=total damage to plant, 0=no damage to plant, read-out: plant damage rating, Barnyardgrass; for pest or weed control at 250 g/ha: 250 g ai/ha, read-out: Barnyardgrass damage rating (100=total damage to plant; 0=no damage to plant)
Summary of the method: as §1

[6] = system: velvetleaf (Abutilon theophrasti); experiment: Test G Pre-Emergence Protocol; settings: Abutilon theophrasti, pre-emergence, 312 h, evaluated after 13 days; for pest or weed control at 15.625 g/ha: 15.625 g ai/ha; for pest or weed control at 15.625 g/ha / pest or weed control at 250 g/ha: read-out: Velvetleaf damage rating (100=total damage to plant; 0=no damage to plant); for pest or weed control at 62.5 g/ha: 62.5 g ai/ha, 100=total damage to plant, 0=no damage to plant, read-out: plant damage rating, Velvetleaf; for pest or weed control at 250 g/ha: 250 g ai/ha
Summary of the method: as §1

corn (Zea mays) [7] = experiment: Test G Post-Emergence Protocol; settings: Zea mays, post-emergence, 312 h; for plant injury at 15.625 g/ha: 15.625 g ai/ha, evaluated after 13 days (100=total damage to plant; 0=no damage to plant), read-out: Corn damage rating; for plant injury at 62.5 g/ha: 62.5 g ai/ha, read-out: Corn damage rating (100=total damage to plant; 0=no damage to plant); for plant injury at 62.5 g/ha / plant injury at 250 g/ha: evaluated after 13 days; for plant injury at 250 g/ha: 250 g ai/ha, read-out: damage to plant, Corn (100=total damage to plant; 0=no damage to plant)
Summary of the method: (§2)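 Values are percent visual injury at 13 days after treatment (0 none, 100 total). Treatment was a post-emergence spray at 15.625, 62.5 or 250 g/ha on 8-day-old pot plants kept at 24/16 °C.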

[8] = system: ivy-leaved morning glory (Ipomoea hederacea); experiment: Test G Post-Emergence Protocol; settings: Ipomoea, post-emergence, 312 h; for pest or weed control at 15.625 g/ha: 15.625 g ai/ha, evaluated after 13 days (100=total damage to plant; 0=no damage to plant), read-out: Morningglory, Ivy-leaved damage rating; for pest or weed control at 62.5 g/ha: 62.5 g ai/ha, read-out: Morningglory, Ivy-leaved damage rating (100=total damage to plant; 0=no damage to plant); for pest or weed control at 62.5 g/ha / pest or weed control at 250 g/ha: evaluated after 13 days; for pest or weed control at 250 g/ha: 250 g ai/ha, read-out: damage to plant, Morningglory, Ivy-leaved (100=total damage to plant; 0=no damage to plant)
Summary of the method: as §2

[9] = system: redroot pigweed (Amaranthus retroflexus); experiment: Test G Post-Emergence Protocol; settings: Amaranthus retroflexus, post-emergence, 312 h; for pest or weed control at 15.625 g/ha: 15.625 g ai/ha, evaluated after 13 days (100=total damage to plant; 0=no damage to plant), read-out: Pigweed, Redroot damage rating; for pest or weed control at 62.5 g/ha: 62.5 g ai/ha, read-out: Pigweed, Redroot damage rating (100=total damage to plant; 0=no damage to plant); for pest or weed control at 62.5 g/ha / pest or weed control at 250 g/ha: evaluated after 13 days; for pest or weed control at 250 g/ha: 250 g ai/ha, read-out: damage to plant, Pigweed, Redroot (100=total damage to plant; 0=no damage to plant)
Summary of the method: as §2

[10] = system: giant foxtail (Setaria faberi); experiment: Test G Post-Emergence Protocol; settings: Setaria faberi, post-emergence, 312 h; for pest or weed control at 15.625 g/ha: 15.625 g ai/ha, evaluated after 13 days (100=total damage to plant; 0=no damage to plant), read-out: Foxtail, Giant damage rating; for pest or weed control at 62.5 g/ha: 62.5 g ai/ha, read-out: Foxtail, Giant damage rating (100=total damage to plant; 0=no damage to plant); for pest or weed control at 62.5 g/ha / pest or weed control at 250 g/ha: evaluated after 13 days; for pest or weed control at 250 g/ha: 250 g ai/ha, read-out: damage to plant, Foxtail, Giant (100=total damage to plant; 0=no damage to plant)
Summary of the method: as §2

[11] = system: barnyardgrass (Echinochloa crus-galli); experiment: Test G Post-Emergence Protocol; settings: Echinochloa crus-galli, post-emergence, 312 h; for pest or weed control at 15.625 g/ha: 15.625 g ai/ha, evaluated after 13 days (100=total damage to plant; 0=no damage to plant), read-out: Barnyardgrass damage rating; for pest or weed control at 62.5 g/ha: 62.5 g ai/ha, read-out: Barnyardgrass damage rating (100=total damage to plant; 0=no damage to plant); for pest or weed control at 62.5 g/ha / pest or weed control at 250 g/ha: evaluated after 13 days; for pest or weed control at 250 g/ha: 250 g ai/ha, read-out: damage to plant, Barnyardgrass (100=total damage to plant; 0=no damage to plant)
Summary of the method: as §2

[12] = system: velvetleaf (Abutilon theophrasti); experiment: Test G Post-Emergence Protocol; settings: Abutilon theophrasti, post-emergence, 312 h; for pest or weed control at 15.625 g/ha: 15.625 g ai/ha, evaluated after 13 days (100=total damage to plant; 0=no damage to plant), read-out: Velvetleaf damage rating; for pest or weed control at 62.5 g/ha: 62.5 g ai/ha, read-out: Velvetleaf damage rating (100=total damage to plant; 0=no damage to plant); for pest or weed control at 62.5 g/ha / pest or weed control at 250 g/ha: evaluated after 13 days; for pest or weed control at 250 g/ha: 250 g ai/ha, read-out: damage to plant, Velvetleaf (100=total damage to plant; 0=no damage to plant)
Summary of the method: as §2

| SMILES | plant injury at 15.625 g/ha (corn (Zea mays) [1]) [%] | plant injury at 62.5 g/ha (corn (Zea mays) [1]) [%] | plant injury at 250 g/ha (corn (Zea mays) [1]) [%] | pest or weed control at 15.625 g/ha [2] [%] | pest or weed control at 62.5 g/ha [2] [%] | pest or weed control at 250 g/ha [2] [%] | pest or weed control at 15.625 g/ha [3] [%] | pest or weed control at 62.5 g/ha [3] [%] | pest or weed control at 250 g/ha [3] [%] | pest or weed control at 15.625 g/ha [4] [%] | pest or weed control at 62.5 g/ha [4] [%] | pest or weed control at 250 g/ha [4] [%] | pest or weed control at 15.625 g/ha [5] [%] | pest or weed control at 62.5 g/ha [5] [%] | pest or weed control at 250 g/ha [5] [%] | pest or weed control at 15.625 g/ha [6] [%] | pest or weed control at 62.5 g/ha [6] [%] | pest or weed control at 250 g/ha [6] [%] | plant injury at 15.625 g/ha (corn (Zea mays) [7]) [%] | plant injury at 62.5 g/ha (corn (Zea mays) [7]) [%] | also measured |
| --- | --- | --- | --- | --- | --- | --- | --- | --- | --- | --- | --- | --- | --- | --- | --- | --- | --- | --- | --- | --- | --- |
| Cc1c(Cl)cccc1NC(=O)[C@@H]1C(=O)N(C)C[C@H]1c1ccc(C(F)(F)F)cc1 (racemic) [Compound 1607] | 0 | 0 | 10 | 0 | 10 | 20 | 0 | 20 | 30 | 50 | 80 | 80 | 0 | 40 | 80 | 0 | 0 | 20 | 0 | 0 | plant injury at 250 g/ha (corn (Zea mays) [7]): 60%; pest or weed control at 15.625 g/ha [8]: 20%; pest or weed control at 62.5 g/ha [8]: 30%; pest or weed control at 250 g/ha [8]: 60%; pest or weed control at 15.625 g/ha [9]: 0%; pest or weed control at 62.5 g/ha [9]: 40%; pest or weed control at 250 g/ha [9]: 70%; pest or weed control at 15.625 g/ha [10]: 50%; pest or weed control at 62.5 g/ha [10]: 80%; pest or weed control at 250 g/ha [10]: 80%; pest or weed control at 15.625 g/ha [11]: 0%; pest or weed control at 62.5 g/ha [11]: 50%; pest or weed control at 250 g/ha [11]: 60%; pest or weed control at 15.625 g/ha [12]: 10%; pest or weed control at 62.5 g/ha [12]: 30%; pest or weed control at 250 g/ha [12]: 40% |
| CN1C[C@@H](c2ccc(C(F)(F)F)cc2)[C@H](C(=O)Nc2ccsc2)C1=O (racemic) [Compound 1611] | 0 | 0 | 0 | 0 | 0 | 0 | 0 | 0 | 0 | 0 | 0 | 0 | 0 | 0 | 0 | 0 | 0 | 0 | 0 | 0 | plant injury at 250 g/ha (corn (Zea mays) [7]): 0%; pest or weed control at 15.625 g/ha [8]: 0%; pest or weed control at 62.5 g/ha [8]: 0%; pest or weed control at 250 g/ha [8]: 0%; pest or weed control at 15.625 g/ha [9]: 0%; pest or weed control at 62.5 g/ha [9]: 0%; pest or weed control at 250 g/ha [9]: 0%; pest or weed control at 15.625 g/ha [10]: 0%; pest or weed control at 62.5 g/ha [10]: 0%; pest or weed control at 250 g/ha [10]: 0%; pest or weed control at 15.625 g/ha [11]: 0%; pest or weed control at 62.5 g/ha [11]: 0%; pest or weed control at 250 g/ha [11]: 0%; pest or weed control at 15.625 g/ha [12]: 0%; pest or weed control at 62.5 g/ha [12]: 0%; pest or weed control at 250 g/ha [12]: 0% |
